Experimental data: patent publication US20060019967A1 (priority 2004, published 2006)

Molecular target: HCV NS3 protease (Hepatitis C virus genotype 1b, UniProt P26663)
Format: biochemical

HCV NS3 protease, sequence (P26663 1027-1206, other chains not shown): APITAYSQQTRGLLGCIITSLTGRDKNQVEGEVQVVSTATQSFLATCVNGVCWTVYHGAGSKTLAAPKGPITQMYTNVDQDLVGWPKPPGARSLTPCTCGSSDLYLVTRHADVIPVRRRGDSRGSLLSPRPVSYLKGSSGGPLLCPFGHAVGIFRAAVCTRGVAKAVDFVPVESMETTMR

With `Cc1cc(S(=O)(=O)c2c([N+](=O)[O-])cc(C(F)(F)F)cc2[N+](=O)[O-])c(Cl)cc1Cl` [Compound 1] the “inhibition of the proteolytic activity of HCV NS3 protease” value (“inhibition” for short) was “effectively inhibited”.

`CCOC(=O)/C(C#N)=C/Nc1ccc(S(=O)(=O)c2ccc(N/C=C(\C#N)C(=O)OCC)cc2)cc1` [Compound 14] was tested, and the “inhibition” value was “effectively inhibited”.

With `CCOC(=O)C(=CNc1ccc(S(=O)(=O)c2ccc(NC=C(C(=O)OCC)C(=O)OCC)cc2)cc1)C(=O)OCC` [Compound 20] the “inhibition” value was “effectively inhibited”.

In the case of `O=C(CC1=NCCS1)c1cccs1` [Compound 21], the “inhibition” value is reported as “effectively inhibited”.

In the case of `CN(C)/C=C(/C(=O)c1cccs1)c1nnnn1-c1ccccc1` [Compound 25], the “inhibition” value is reported as “effectively inhibited”.
